Measured values from US20250230193A1, “CYCLIC COMPOUND HAVING SELECTIVE KRAS INHIBITORY EFFECT ON HRAS AND NRAS” (CHUGAI SEIYAKU KABUSHIKI KAISHA, priority 2022, published 2025).

Experiments:
[1] = target: GDP-bound NRAS wild-type protein (Homo sapiens, UniProt P01111); experiment: Binding to NRAS by surface plasmon resonance (SPR), Single Cycle Kinetics
[2] = target: GDP-bound HRAS wild-type protein (Homo sapiens, UniProt P01112); experiment: Binding to HRAS by surface plasmon resonance (SPR), Single Cycle Kinetics
Chain of GDP-bound HRAS wild-type protein (P01112 whole entry): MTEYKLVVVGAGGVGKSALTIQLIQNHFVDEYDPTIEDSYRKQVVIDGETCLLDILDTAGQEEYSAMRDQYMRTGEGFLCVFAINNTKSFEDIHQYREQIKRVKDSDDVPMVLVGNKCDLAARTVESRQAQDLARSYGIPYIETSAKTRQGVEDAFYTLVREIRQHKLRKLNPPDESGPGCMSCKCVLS

[3] = KD ratio, GDP-bound NRAS wild-type vs GDP-bound KRAS wild-type, SPR
[4] = KD ratio, GDP-bound HRAS wild-type vs GDP-bound KRAS wild-type, SPR
[5] = SPR, GDP-bound wild-type proteins

Chain of GDP-bound NRAS wild-type protein (P01111 whole entry): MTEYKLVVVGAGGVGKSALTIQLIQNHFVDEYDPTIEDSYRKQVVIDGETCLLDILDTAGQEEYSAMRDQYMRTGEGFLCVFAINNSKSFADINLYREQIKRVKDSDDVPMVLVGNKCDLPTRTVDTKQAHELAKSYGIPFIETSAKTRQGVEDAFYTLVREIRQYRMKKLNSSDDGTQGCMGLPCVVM

CCO[C@@H]1C[C@H]2C(=O)NC3(CCCC3)C(=O)N(C)[C@@H](C3CCCC3)C(=O)N(C)[C@H](C(=O)N(C)C)CC(=O)N(C)[C@@H](CC)C(=O)N[C@@H]([C@@H](C)CC)C(=O)N(C)CC(=O)N(C)[C@H]3C/C=C\CCN(C3=O)[C@@H](Cc3ccc(C(F)(F)F)cc3)C(=O)N(C)CC(=O)N[C@@H](CCc3cc(C)c(Cl)c(C)c3)C(=O)N2C1 [PP1823]
NRAS/KRAS (ratio of KD value for NRAS to KD value for KRAS) [1, 3]: A (a compound having 10 or more and less than 20 is denoted as A) | HRAS/KRAS (ratio of KD value for HRAS to KD value for KRAS) [2, 4]: A (a compound having 10 or more and less than 20 is denoted as A)

CCO[C@@H]1C[C@H]2C(=O)NC3(CC(C)(C)C3)C(=O)N(C)[C@@H](CC3CCC3)C(=O)N(C)[C@H](C(=O)N(C)C)CC(=O)N(C)[C@@H](COC)C(=O)N[C@@H]([C@@H](C)CC)C(=O)N(C3CC3)CC(=O)N(C)[C@H]3C/C=C\CCN(C3=O)[C@@H](Cc3ccc(C(F)(F)F)cc3)C(=O)N(C)CC(=O)N[C@@H](CCc3ccc(Cl)c(Cl)c3)C(=O)N2C1 [PP2821]
NRAS/KRAS (ratio of KD value with respect to GDP-bound NRAS wild-type protein to KD value with respect to KRAS) ([1]; class symbols): A (a compound having 10 or more and less than 20 is denoted as A) | HRAS/KRAS (ratio of KD value with respect to GDP-bound HRAS wild-type protein to KD value with respect to KRAS) ([2]; class symbols): A (a compound having 10 or more and less than 20 is denoted as A)

CCO[C@@H]1C[C@H]2C(=O)NC3(CCC3)C(=O)N(C)[C@@H](C3CCCC3)C(=O)N(CCC3CCCC3)[C@H](C(=O)N(C)C)CC(=O)N(C)[C@@H](CC(C)C)C(=O)N[C@@H]([C@@H](C)CC)C(=O)N(C)CC(=O)N(C)[C@H]3CCCCCN(C3=O)[C@@H](Cc3ccc(F)cc3)C(=O)N(C)CC(=O)N[C@@H](CCc3ccc(C(F)(F)F)c(Cl)c3)C(=O)N2C1 [PP0976]
NRAS/KRAS (ratio of KD value with respect to NRAS to KD value with respect to KRAS) [1, 3]: B (a compound having 3 or more and less than 10 is denoted as B) | HRAS/KRAS (ratio of KD value with respect to HRAS to KD value with respect to KRAS) [2, 4]: B (a compound having 3 or more and less than 10 is denoted as B)

CCC[C@H]1C(=O)N[C@@H](C2CCCCC2)C(=O)N(C)CC(=O)N(C)[C@H]2C/C=C\CCN(C2=O)[C@@H](Cc2ccc(C)cc2)C(=O)N(C)CC(=O)N[C@@H](CCc2ccc(C(F)(F)F)c(Cl)c2)C(=O)N2C[C@H](OCC)C[C@H]2C(=O)NC2(CC(C)(C)C2)C(=O)N(C)[C@@H](CC(C)C)C(=O)N(C)[C@H](C(=O)N(C)C)CC(=O)N1C [PP3021]
NRAS/KRAS (ratio of KD value with respect to GDP-bound NRAS wild-type protein to KD value with respect to KRAS) [1, 5]: AA (a compound having 20 or more is denoted as AA) | HRAS/KRAS (ratio of KD value with respect to GDP-bound HRAS wild-type protein to KD value with respect to KRAS) [2, 5]: A (a compound having 10 or more and less than 20 is denoted as A)

CCC[C@H]1C(=O)N[C@@H]([C@@H](C)CC)C(=O)N(C)CC(=O)N(C)[C@H]2C/C=C\CCN(C2=O)[C@@H](CC2CCCCC2)C(=O)N(C)CC(=O)N[C@@H](CCc2ccc(C(F)(F)F)c(OC)c2)C(=O)N2C[C@@H](C)C[C@H]2C(=O)N(C)C2(CCC2)C(=O)N(C)[C@@H](C2CCCC2)C(=O)N(C)[C@H](C(=O)N(C)C)CC(=O)N1C [PP2370]
NRAS/KRAS (ratio of KD value with respect to NRAS to KD value with respect to KRAS) ([1]; SPR, GDP-bound NRAS wild-type vs GDP-bound KRAS wild-type): B (a compound having 3 or more and less than 10 is denoted as B) | HRAS/KRAS (ratio of KD value with respect to HRAS to KD value with respect to KRAS) ([2]; SPR, GDP-bound HRAS wild-type vs GDP-bound KRAS wild-type): B (a compound having 3 or more and less than 10 is denoted as B)

CCCO[C@@H]1C[C@H]2C(=O)NC3(CC(C)(C)C3)C(=O)N(C)[C@@H](C3CCCC3)C(=O)N(C)[C@H](C(=O)N3CCCC3)CC(=O)N(C)[C@H]3CCCc4ccc(cc4)C[C@@H](C(=O)N(C)CC(=O)N[C@@H](CCc4ccc(C(F)(F)F)c(OC)c4)C(=O)N2C1)N1CC/C=C\C[C@@H](C1=O)N(C)C(=O)CN(C)C(=O)[C@H]([C@@H](C)CC)NC3=O [PP3065]
NRAS/KRAS (ratio of KD value with respect to GDP-bound NRAS wild-type protein to KD value with respect to KRAS) [1, 5]: A (a compound having 10 or more and less than 20 is denoted as A) | HRAS/KRAS (ratio of KD value with respect to GDP-bound HRAS wild-type protein to KD value with respect to KRAS) [2, 5]: B (a compound having 3 or more and less than 10 is denoted as B)

CCO[C@@H]1C[C@H]2C(=O)NC3(CCC3)C(=O)N(C)[C@@H](C3CCCC3)C(=O)N(C)[C@H](C(=O)N3CCOCC3)CC(=O)N(C)[C@@H](CC3CCCCC3)C(=O)N[C@@H]([C@@H](C)CC)C(=O)N(C)CC(=O)N(C)[C@H]3CCCCCN(C3=O)[C@@H](Cc3ccc(C(F)(F)F)cc3)C(=O)N(C)CC(=O)N[C@@H](CCc3cc(F)c(C(F)(F)F)c(F)c3)C(=O)N2C1 [PP0686]
NRAS/KRAS (ratio of KD value with respect to GDP-bound NRAS wild-type protein to KD value with respect to KRAS) ([1]; SPR): B (a compound having 3 or more and less than 10 is denoted as B) | HRAS/KRAS (ratio of KD value with respect to GDP-bound HRAS wild-type protein to KD value with respect to KRAS) ([2]; SPR): B (a compound having 3 or more and less than 10 is denoted as B)
